Consider twelve molecules from patent publication US4086361A, “Aminoethyl oximes having anti-depressive activity” (U.S. Philips Corporation, priority 1975, dated 1978).

Common to all, as to format: in vivo, male albino mice
For experiment [1], the system named is monoamino oxidase (MAO). In words: monoamino oxidase (MAO) inhibiting effect, tryptamine hydrochloride mortality test. The conditions noted are these: oral, mice; 1 hour before 250 mg/kg s.c. tryptamine hydrochloride; mortality after 18 hours. How it is done:
The monoamino oxidase (MAO) inhibiting effect was determined in experiments in which a quantity of the compound to be tested was administered orally to five male albino mice. One hour later the animals were injected subcutaneously with tryptamine hydrochloride in a quantity of 250 mg/kg. […] Eighteen hours after the administration of tryptamine hydrochloride it was determined how many treated animals had died. The ED50 was determined from the results. By means of the method by Metysova, Arzneimittelforschung 13,- 1039 (1963) it was determined whether the oral administration of 200 mg of a compound to be tested to rats causes stomach ulceration.

In experiment [2] the test system is noradrenaline (tetrabenazine ptosis). In words: noradrenaline potentiation, tetrabenazine test. The conditions noted are these: Mus musculus, oral, mice, 45 min before 80 mg/kg s.c. tetrabenazine, read-out: noradrenalin potentiation ED50. As to the method:
The noradrenaline potentiation was determined in the tetrabenazine test. In this test a quantity of the compound to be tested was administered orally to five male albino mice. After 45 minutes the animals were injected subcutaneously with 80 mg/kg of tetrabenazine. After another 45 minutes the degree of ptosis was determined and compared with the ptosis of animals which had received tetrabenazine alone. The ED50 was determined from the results.

Experiment [3] has as its system serotonin (5-hydroxytryptophan). In words: serotonin potentiation, 5-hydroxytryptophan test. The conditions noted are these: Mus musculus; oral, mice; 1 hour before 150 mg/kg i.p. dl-5-hydroxytryptophan. As to the method: The serotonin potentiation was determined in the 5-hydroxytryptophan test. For this purpose, the compounds to be tested were administered orally in a series of dosages to isolated male albino mice (5 mice per dosage) 1 hour prior to intraperitoneal administration of 150 mg/kg of dl-5-hydroxytryptophan. Thirty minutes after this threshold dosage the mice were observed individually and the following parameters were scored: stereotypical shaking of the head, spreading of the hindlegs, tremor, tendency to flee, lordosis, clonic stamping with the frontlegs. The ED50 value was calculated from the results.

Where a name gives a salt, the structure may show the parent alone.

Consider `CCCCCC(=NOCCN)c1ccc(Br)cc1` [Br CH3, reference compound], for which the “MAO inhibition ED50” value in experiment [1] is listed as > 215 mg/kg. In addition, the values for the ED50 in experiment [2] and in experiment [3] were 3.1 mg/kg and 10 mg/kg, respectively.

As to `Cl.N#CCCCCC(=NOCCN)c1ccc(Br)cc1` [Br CN, 4'-bromo-5-cyanovalerophenone O-(2-aminoethyl) oxime hydrochloride], in experiment [1], the “MAO inhibition ED50” value was > 215 mg/kg. Moreover, the ED50 in experiment [2] stood at 11.2 mg/kg; in experiment [3], 20 mg/kg.

Turning to `COCCOCCCCC(=NOCCN)c1ccc(Br)cc1` [Br OC2 H4 OCH3, 4'-bromo-5-(2-methoxyethoxy) valerophenone O-(2-aminoethyl) oxime fumarate (1 : 1)], the “MAO inhibition ED50” value in experiment [1] is given as > 215 mg/kg. The ED50 in experiment [2] was 6.6 mg/kg; in experiment [3] it was 35 mg/kg.

For `COCCCCC(=NOCCN)c1ccc(Br)cc1` [Br OCH3, 4'-bromo-5-methoxyvalerophenone O-(2-aminoethyl) oxime fumarate (1 : 1)], the “MAO inhibition ED50” value in experiment [1] is listed as > 215 mg/kg. In addition, the 50% effective dose (ED50) stood at 6.6 mg/kg in experiment [2] and 22 mg/kg in experiment [3].

`COCCCCCC(=NOCCN)c1ccc(Cl)cc1.Cl` [Cl C2 OCH3, 4'-chloro-6-methoxycaprophenone O-(2-aminoethyl) oxime hydrochloride]: in experiment [1], the “MAO inhibition ED50” value is given as > 215 mg/kg. Moreover, the ED50 in experiment [2] is 5.3 mg/kg; in experiment [3], 36 mg/kg.

Take `Cl.N#CCCCCCC(=NOCCN)c1ccc(Cl)cc1` [Cl CH2 CN, 4'-chloro-6-cyanocaprophenone O-(2-aminoethyl) oxime hydrochloride]: in experiment [1], the “MAO inhibition ED50” value is > 215 mg/kg. In addition, the ED50 in experiment [2] stood at 11 mg/kg; in experiment [3] it was 38 mg/kg.

Take `CCOCCCCCC(=NOCCN)c1ccc(Cl)cc1.Cl` [Cl CH2 OC2 H5, 4'-chloro-6-ethoxycaprophenone O-(2-aminoethyl) oxime hydrochloride]: the “MAO inhibition ED50” value in experiment [1] is listed as > 215 mg/kg. In addition, the ED50 in experiment [2] turned out to be 7.4 mg/kg; in experiment [3] it was 54 mg/kg.

Consider `CCCCCC(=NOCCN)c1ccc(Cl)cc1` [Cl CH3, reference compound], for which, in experiment [1], the “MAO inhibition ED50” value is > 215 mg/kg. Moreover, the figures for the 50% effective dose (ED50) in experiment [2] and in experiment [3] were 1.9 mg/kg and 14 mg/kg, respectively.

On to `Cl.N#CCCCCC(=NOCCN)c1ccc(Cl)cc1` [Cl CN, 4'-chloro-5-cyanovalerophenone O-(2-aminoethyl) oxime hydrochloride], for which the “MAO inhibition ED50” value in experiment [1] is given as > 215 mg/kg. In addition, the ED50 in experiment [2] worked out at 6.8 mg/kg; in experiment [3], 20 mg/kg.

As for `CCCCC(=NOCCN)c1ccc(Cl)cc1` [Cl H, reference compound], the “MAO inhibition ED50” value in experiment [1] is listed as > 215 mg/kg. The ED50 in experiment [2] amounted to 5.6 mg/kg; in experiment [3], 12 mg/kg.

With `COCCOCCCCC(=NOCCN)c1ccc(Cl)cc1` [Cl OC2 H4 OCH3, 4'-chloro-5-(2-methoxyethoxy) valerophenone O-(2-aminoethyl) oxime fumarate (1 : 1)], in experiment [1], the “MAO inhibition ED50” value is > 215 mg/kg. For the same molecule, the ED50 in experiment [2] amounted to 4 mg/kg; in experiment [3] it was 41 mg/kg.

In the case of `CCOCCCCC(=NOCCN)c1ccc(Cl)cc1` [Cl OC2 H5, 4'-chloro-5-ethoxyvalerophenone O-(2-aminoethyl) oxime fumarate (1 : 1)], the “MAO inhibition ED50” value in experiment [1] is on record as > 215 mg/kg. The figures for the ED50 in experiment [2] and in experiment [3] were 4.3 mg/kg and 36 mg/kg, respectively.
